{
  "source": "paper PMC5563081",
  "about": "“Modulating Protein-Protein Interactions of the Mitotic Polo-like Kinases to Target Mutant KRAS” (Cell Chemical Biology, 2017)",
  "key": {"[1]": {"test_system": "HCT116 (KRAS G13D) xenografts", "assay": "Xenograft study, tumour volume", "format": "in vivo, mouse", "conditions": "for Group Mean at Day 15 (tumour volume): HCT116 xenograft, vehicle 778", "procedure": "Male athymic mice were purchased from Harlan (UK) and acclimatised for 7 days prior to study commencement. Animals were housed in IVC cages (5 per cage) with individual mice identified by tail marking. All animals were allowed free access to a standard certified commercial diet and sanitised water during the study. The holding room was maintained under standard conditions: 20-24°C, 40-70% humidity and a 12h light/dark cycle. All experiments were performed under approved ethical and procedural guidelines.\nTumours were established by sub-cutaneous implantation of 2 x 10^6 HCT116 cells suspended in 50% Matrigel into the flanks of a cohort of mice. When a sufficient number of mice had developed tumours of approximately 100mm3, they were randomly assigned to three groups: Vehicle, 50mg/kg Poloppin-II or 200mg/kg Poloppin-II, with 10 mice per group. Mice were treated orally according to their treatment group once every three days. Tumour volume was measured three times per week with calipers. Body weight was measured three times per week. In addition to mice assigned to tumour volume efficacy arm of the study, 16 mice with established HCT116 xenografts were assigned to either Vehicle or 200mg/kg oral dosing groups, with 8 mice per group. 24 hours after a single dose, mice were euthanised, tumours removed, snap frozen and 30-50microgram of lysates were analysed by Western blotting on 4-12% Bis-Tris acrylamide gels, and transferred using the Invitrogen iBlot dry system. Phospho-Histone H3 was detected using Abcam antibody ab5176, beta-actin with Sigma antibody a5316. […] HRP was visualised with ECL-Plus (GE Healthcare)."}, "[2]": {"test_system": "human cell lines", "assay": "Dose-dependent mitotic arrest (Figure 1F)", "format": "cell-based", "procedure": "Cells were plated at 10 000/well in 96-well plates and incubated overnight. The following day compound stocks in DMSO were diluted in medium then added to cells with a maximum final DMSO concentration on cells of 0.2%. Cells were incubated with compound for 24 h then fixed in 3.7% formaldeyde. Cells were permeabilised with 0.1% Triton X-100 then incubated with anti-phospho-histone H3 (Ser10) antibody (Abcam ab5176). The cells were washed with PBS then incubated with AlexaFluor 488 labelled goat anti-rabbit IgG (Invitrogen A11034) in the presence of 4ug/ml Hoechst 33342 (Invitrogen H3570). Cells were washed in PBS then imaged on an Arrayscan VTi HCS instrument (Thermo Fisher) using the Target Activation V4 Bioapplication. A user-defined threshold was applied to identify mitotic cells based on the intensity of phospho-histone H3 staining."}, "[3]": {"test_system": "MEFs KRAS MUT p53 MUT", "assay": "Cell viability in MEFs, KRAS MUT p53 MUT", "format": "cell-based", "conditions": "Mus musculus", "procedure": "KrasWT mouse embryonic fibroblasts (MEFs) were derived from conditional LSL-Trp53^R172H/+ embryos. LSL-Trp53^R172H/+, LSL-Kras^G12D/+ ([Hingorani et al., 2005]) strains were interbred to obtain LSL-Kras^G12D/+, LSL-Trp53^R172H/+ Kras^G12D embryos for MEF preparation. Briefly, MEFs were derived from E13.5 embryos after decapitation and evisceration. Finely minced tissue was passed through a 16-G needle two or three times before dissociated cells were cultured in DMEM with 10% FBS. Cre-mediated recombination to activate the Kras^G12D allele was induced via addition of 500nM 4-OH Tamoxifen to the culture media overnight."}, "[4]": {"test_system": "HCT116 BI 2536-Res. Clones", "assay": "Viability of BI 2536-resistant HCT116 clones", "format": "cell-based, human", "procedure": "Viability is represented as percentage survival normalised to DMSO control. […] PCR reactions were carried out using Amplitaq Gold polymerase (Applied Biosystems N8080241) with a 25-cycle programme. […] Prepared samples were submitted for next generation sequencing using MiSeq Nano run with Nextera XT library preparation. Sequencing and subsequent bioinformatics were performed by Cambridge Genomic Services (University Of Cambridge)."}, "[5]": {"test_system": "HeLa", "assay": "GI50 for cell killing, HeLa", "format": "cell-based", "conditions": "Homo sapiens"}, "[6]": {"test_system": "HCT116 KRAS G13D cells", "assay": "Development of drug resistance under continuous treatment", "format": "cell-based, human", "conditions": "continuous treatment at 5x GI50", "procedure": "HCT116 wild-type cells (Horizon Discovery Ltd.) cultured in McCoy's 5A (Life Technologies #26600) medium supplemented with 10% Foetal Calf Serum (Life Technologies #10270) were treated on three occasions with titrations of the PLK1 ATP-competitive inhibitor BI 2536 (Selleckchem #S1109) or Poloppin in order to determine the 2.5x GI50, 3x GI50 and 5x GI50 values for each compound required to initiate the development of resistance. Cells were subsequently treated with 2.5x GI50, 3x GI50 and 5x GI50 concentrations of either compound, changing media and compound every three to four days until resistant colonies emerged or no viable cells remained. Single cell clones were isolated from cells resistant to 5x GI50 BI 2536. Equivalent experiments using 3x GI50 or 2.5x GI50 doses of Poloppin or BI2536 yielded identical results (data not shown). BI 2536-resistant clones (HCT116 BI 2536-Res. Clones) were treated with BI2536 or Poloppin, alongside drug-sensitive parental HCT116 cells (HCT116 wt), and viability was assessed after 72 h. Viability is represented as percentage survival normalised to DMSO control. […]"}},
  "data": [
    {"compound": "CN(C)CCNC(=O)c1ccc(-c2ccc(-c3ccc(Cl)cc3)n2-c2ccccc2C(F)(F)F)cc1", "note": "[Poloppin-II]", "values": [
      {"measurement": "growth of xenografted tumors", "setting": "[1]; 50 mg/kg oral, HCT116 KRAS G13D", "result": "reduced the growth of xenografted tumors"},
      {"measurement": "Group Mean at Day 15 (tumour volume)", "setting": "[1]; 50mg/kg oral every three days", "result": 415, "unit": "mm³"},
      {"measurement": "Group Mean at Day 15 (tumour volume)", "setting": "[1]; 200mg/kg oral, treatment suspended after seven days", "result": 371, "unit": "mm³"}
    ]},
    {"compound": "O=C(O)CCc1ccc(-c2ccc(Br)cc2)n1-c1ccccc1C(F)(F)F", "note": "[Poloppin]", "values": [
      {"measurement": "EC50", "setting": "[2]", "result": "29.9 ± 1.12", "unit": "µM"},
      {"measurement": "GI50", "setting": "[3]; MEFs KRAS MUT p53 MUT", "result": "49.5 ± 1.05", "unit": "µM"},
      {"measurement": "GI50", "setting": "[3]; MEFs KRAS MUT p53 MUT+4OHT", "result": "17.6 ± 1.22", "unit": "µM"},
      {"measurement": "GI50", "setting": "[4]; BI2536-Res. (Mean), 72 h", "result": "retain sensitivity"},
      {"measurement": "GI50", "setting": "[4]; Homo sapiens, HCT-116, 72 h", "result": 7.7, "unit": "µM"},
      {"measurement": "GI50", "setting": "[5]", "result": 10, "unit": "µM"},
      {"measurement": "acquisition of drug resistance", "setting": "[6]", "result": "undetectable"}
    ]}
  ]
}
